Experimental data from US20100286247A1, “Methods of Protection from Oxidative Stress” (Trustees of Boston University, priority 2005, published 2010).
Entries after “also recorded” stand apart in the source; their conditions may differ. {P} = phosphate

Assays:
[1] = test system: intracellular ROS in normal newborn human dermal fibroblasts; assay: Dichlorofluorescein diacetate (DCF) assay of intracellular ROS, FACScan; type: cell-based; settings: for DCF fluorescence (intracellular ROS) compared to diluent: 100 μM pTT / pCC, 40 μM TO / TOC1 / TOC2
Protocol: Normal newborn human dermal fibroblasts were cultured from foreskin specimens into DMEM supplemented with 10% CS as described above. Due to the large number of cells needed for time course experiments, and to minimize donor variability, in dichlorofluorescein diacetate FACS experiments cells from three different donors were combined.
Purified lyophilized oligonucleotides were obtained and prepared for cell treatment as described above. All treatments involved a single stimulation with T-oligo, after which cells were harvested at various times without medium changes or addition of more T-oligo. Treatment doses were 100 μM pTT and 40 μM TO except in dose-response experiments; these concentrations were determined in previous experiments to be optimal for measuring DNA damage responses using these T-oligos.^142,150,228
Complementary and scrambled oligonucleotides were chosen for each T-oligo. pAA and pCC were used as controls for pTT, and the complementary 11-base pCTAACCCTAAC (TOC1, SEQ ID NO: 22) and a scrambled sequence pGATCGATCGAT (TOC2, SEQ ID NO: 23) were used as controls for the T-oligo TO.
H2DCFDA stock solution (1 mg/ml) was thawed and diluted in Hanks' Balanced Salt Solution, 1× liquid without phenol red (GIBCO Invitrogen, Carlsbad, Calif.), to a working concentration of 100 μM immediately before use. H2DCFDA is converted by intracellular esterases to dichlorofiuorescein (DCF). When oxidized by intracellular ROS, it will fluoresce at 530 nm when excited by 480 nm light. […] All work involving DCF was conducted in minimal room light. Peaks on FACScan plots that shift to the right indicate greater fluorescence and increased ROS levels. For NADPH oxidase inhibitor studies using DPI,^237,239 the DPI stock solution was added directly to DCF treatment solution to achieve a final DPI treatment concentration of 50 μM.
Hydrogen peroxide positive controls were used to rule out saturation of the DCF probe in the T-oligo dose response experiments. Fibroblasts were exposed to 1 mM, 5 mM and 10 mM H2O2 solutions in PBS for 15 minutes following DCF incubation for 30 minutes, harvested and analyzed as described above.
The horseradish peroxidase assay data was analyzed by one-way ANOVA. DCF assay FACScan results were analyzed using Cellquest software (Becton-Dickinson, Calif.). All peak positions on x-axis of the fluorescence histogram plot were determined visually (using the software) and recorded as a number. Peak position values were then compared using one-way ANOVA.

[2] = test system: human newborn fibroblasts; assay: Propidium iodide (PI) staining of nonviable cells; type: cell-based; settings: doses 25-250% of standard dose (40 μM TO, 100 μM pTT); positive control 1 mM H2O2
Protocol: Propidium iodide (PI, Sigma) was used to stain nonviable cells for some experiments. PI stock solution (1 mg,/ml) was added to samples immediately after harvesting to achieve a final concentration of 2 μg/ml.
To better characterize the dose effects of different pTT and 11-base T-oligo doses, a dose response study was conducted. For each T-oligo the doses were 25-250% of the standard dose used (40 μM for TO and 100 μM for pTT). […] Panel C is a compilation of the maximum DCF peak shifts measured with each treatment: diluent, 250 μM pTT, 100 μM TO and 1 mM as the positive control. […] There is a significant difference in DCF fluorescence stimulated by the two treatments when the same doses were used (25, 40 and 100 μM) (2-way ANOVA, p=0.0038).

[3] = test system: human dermal fibroblasts; assay: Senescence-associated β-galactosidase (SA-β-gal) assay; type: cell-based; settings: for SA-β-gal positive cells, result in words: up to 72 hours of treatment
Description: Subconfluent senescent fibroblasts were found by Dimri et al. to stain blue in an assay that measures β-galactosidase activity at pH 6.0.^240 As per their protocol, cells were fixed with a 2% formaldehyde and 0.2% glutaraldehyde solution, washed, and stained overnight in X-gal solution. The next day, 3-4 photographs were taken of representative fields in each plate under a 10× microscope objective using coded labels. The number of blue (senescent) cells in each photograph could then be determined in a blinded fashion. The SA-β-gal assay was performed in parallel with the DCF time-course experiments, using the same mixture of donor cells and seeding densities.

[4] = test system: neonatal foreskin fibroblasts; assay: Hydrogen peroxide oxidative challenge, cell yields
Protocol: Early passage neonatal foreskin fibroblasts were passed to 100 mm dishes and pretreated 24 hours after passage with 100 μM pTT or diluent control. […] For each experiment fresh H2O2 solutions were made in DMEM. The H2O2 and control DMEM solutions were made and sterilized through 0.45 μm syringe filters immediately before treatment. After the one-hour treatment with H2O2 or diluent control, fresh medium was provided. Cells were harvested at later timepoints by a brief washing in 1× EDTA, followed by trypsinization at 37° C. Cell yields were determined using the Coulter Z cell counter.
The hydrogen peroxide oxidative challenge assay data were generated with the combined results of four separate experiments. The averages for each treatment condition and timepoint studied (8, 24, 48, and 72 hours) were used to calculate the percent of adherent H2O2 treated cells relative to diluent-treated cells. Changes in cell yield were determined as a function of time using General Linear Model with repeated measure analysis (SPSS Version 10).
After 72 hours of pretreatment with either 100 μM pTT or diluent control, the same number of cells were replated with fresh 10% CS DMEM lacking pTT. The following day they were exposed to a dose of 25 μM H2O2 or DMEM control for 1 hour, and cell yields were determined at 8, 24, 48 and 72 hours following the H2O2 treatment.
Newborn fibroblasts cells were plated in DMEM supplemented with 10% CS. Forty-eight hours after plating, cells were provided fresh medium. Twenty-four hours later, cells were provided fresh medium containing 40 μM of p[sequence] (abbreviated as TO, SEQ ID NO: 1) or diluent as a control. Seventy-two hours later, cells were harvested and replated in fresh medium lacking oligonucleotides. Twenty-four hours later, cells were provided fresh H2O2 (25 μM) or diluent for 1 hour and then provided fresh DMEM with 10% CS. Cell yield was then measured in TO-pre-treated cultures as well as control cultures.

Row | Substance | DCF fluorescence (intracellular ROS) compared to diluent [1] | PI fluorescence (toxicity / nonviable cells) [2] | cells staining positive in the SA-β-gal assay ([3]; 40 μM TO or 100 μM pTT, 24-72 hours of treatment) | SA-β-gal positive cells, result in words [3] | cell yields over time following exposure to H2O2 vs diluent pretreated ([4]; 100 μM pTT 72 hours pretreatment, 25 μM H2O2 1 hour, p=0.0008) | cell yields at 8 hours after H2O2 treatment vs diluent-pretreated ([4]; 100 μM pTT pretreatment, 25 μM H2O2) | higher relative cell yields (percentage of respective H2O2 controls) vs diluent-pretreated ([4]; 100 μM pTT pretreatment, 24 and 48 hours after 25 μM H2O2) [%] | maximum amount of DCF fluorescence, TO vs pTT ([1]; 40 μM TO compared to 100 μM pTT) | time measurable ROS stimulation starts ([1]; FIG. 14 donor cells, 100 μM pTT, 40 μM TO) [h] | time of measurable ROS stimulation ([1]; FIG. 16 representative time course, donor variability) [h] | ROS production (DCF fluorescence) relative to pTT at the same dose ([1]; within 72 hours, 25, 40 and 100 μM doses) | resistance to H2O2 measured by total cell yield ([4]; 40 μM TO 72 hours pretreatment, 25 μM H2O2 1 hour, up to 48 hours) | cells surviving oxidative challenge by H2O2 (cell yield as percent of own diluent control) ([4]; 40 μM TO pretreatment, 25 μM H2O2, non-treated control 52%) [%]
1 | 5′-phosphorylated thymidine dinucleotides [pTT] | statistically significant increase in DCF fluorescence | less than that induced by the positive control; also recorded: comparable to diluent treatment | Less than 10% | did not result in a significant number of SA-β-gal cells; also recorded: did not display S.A. β-gal activity | higher cell yields | lower cell yields than in the diluent-pretreated group | 10 | – | – | – | – | – | –
2 | pGTTAGGGTTAG (5' {P}, sugars by position and backbone not given here) [TO] | statistically significant increase in DCF fluorescence | less than that induced by the positive control; also recorded: comparable to diluent treatment | – | did not display S.A. β-gal activity | – | – | – | greater than ROS stimulated by pTT-treated cells | 36 | ≤ 36 | up to 1.5 times | increased resistance to H2O2 | 75
